Converted amounts (≈) assume the structure as drawn.

One data set concerns nine cancer cell lines. The data set can be described thus: RRA cytotoxicity, summary over the panel. Particulars: number out of 9 cancer cell lines. It is filed as cell-based, human.
A further data set relates to HCT116 p53+/+ cells. The experiment in a line: Resazurin reduction assay (RRA), cytotoxicity. Type of data set: cell-based. Particulars: Homo sapiens, HCT-116, 72 h.
Another data set deals with L-1210 leukemia cells. Also noted: method as in PMID 1800632. The settings on record: murine L-1210 ref 60; cited from earlier work.
Data set [1] deals with CCRF-CEM cells. The data set can be described thus: Cell cycle distribution by flow cytometry (PI staining). It is filed as cell-based, human. The procedure:
The modification of the cell cycle distribution of CCRF-CEM induced by the botanicals BAL, the flavonolignan 2, the control drug, doxorubicin, or the solvent control DMSO was determined by flow cytometry under the previously reported work conditions. BAL and compound 2 were applied to CCRF-CEM cells (1 ml; 1 × 10^6 cells) at their ¼ IC50, ½ IC50, IC50, and 2 × IC50 values. The whole was then incubated for 24 h as earlier indicated followed by the analysis of the cell cycle distribution with a BD Accury C6 Flow Cytometer (BD Biosciences, Heidelberg, Germany). Assays were performed three times in triplicates.
A general note: Flow cytometry measures light scatter and fluorescence of single cells or particles in a stream.

Another data set deals with HCT116 p53−/− cells. The data set can be described thus: Resazurin reduction assay (RRA), cytotoxicity. Type of data set: cell-based, human. Particulars: for IC50: Homo sapiens, HCT-116, HCT116 p53−/−, 72 h. Background: The colour change of resazurin is a common sign of viable cells or microbes.
In another data set the test system is CCRF-CEM leukemia cells. The experiment in a line: Resazurin reduction assay (RRA), cytotoxicity. It is filed as cell-based. Particulars: Homo sapiens, 72 h.
A further data set has as its system HepG2 cells. The data set can be described thus: Resazurin reduction assay (RRA), cytotoxicity. It is filed as cell-based. Particulars: Homo sapiens, HepG2, 72 h.
Data set [2] relates to 697 pre-B acute lymphoblastic leukemia cell line. Also noted: method as in PMID 23280566. The settings on record: 697 pre-B ALL ref 59; cited from earlier work.
Data set [3] has as its system KB nasopharynx cancer cells. Also on record: method as in PMID 1800632. The settings on record: KB ref 60; cited from earlier work.
The test system of data set [4] is CCRF-CEM cells. The experiment in a line: Mitochondrial membrane potential (MMP), JC-1 staining, flow cytometry. Type of data set: cell-based, human. Particulars: 2 × IC50, 24 h. The procedure: (§1) The modification of the MMP as well as the ROS levels after the application of BAL, and flavonolignan 2 at ¼ IC50, ½ IC50, IC50, and 2 × IC50 to CCRF-CEM cells (1 × 10^6) was performed by flow cytometry. DMSO was used as solvent control while valinomycin served as a positive control. The cells were incubated for 24 h and further stained for 30 min with JC-1 [45] and measured (1 × 10^4 cells) in an LSR-Fortessa FACS analyzer (Becton–Dickinson). For ROS determination, CCEF-CEM cells were similarly treated BAL, the flavonolignan 2, hydrogen peroxide (H2O2; positive control), DMSO (solvent control) as in the MMP analysis, then incubated for 24 h. They were further stained with H2DCFH-DA and measured (1 × 10^4 cells) in an LSR-Fortessa FACS analyzer.

A further data set deals with Tmolt3 leukemia cells. Also on record: method as in PMID 1800632. The settings on record: Tmolt3 ref 60; cited from earlier work.
The next data set deals with MDA-MB-231-pcDNA cells. The experiment in a line: Resazurin reduction assay (RRA), cytotoxicity. It is filed as cell-based. The settings on record: Homo sapiens, 72 h.
For a further data set, the system named is SW480 colon cancer cells. Also on record: method as in PMID 24018191. The settings on record: SW480 ref 61; cited from earlier work.
Another data set relates to HeLa-S3 uterine cells. Also noted: method as in PMID 1800632. The settings on record: HeLa-S3 ref 60; cited from earlier work.
In another data set the test system is AML12 hepatocytes. The data set can be described thus: Resazurin reduction assay (RRA), cytotoxicity on normal hepatocytes. It is filed as cell-based. Particulars: for IC50: Mus musculus, AML12 normal hepatocytes, 72 h.
Data set [5] deals with TE-418 osteosarcoma cells. Also on record: method as in PMID 1800632. The settings on record: TE-418 ref 60; cited from earlier work.
Data set [6] concerns S-480 colon adenocarcinoma. Also on record: method as in PMID 1800632. The settings on record: S-480 ref 60; cited from earlier work.
Data set [7] has as its system MB-9812 lung cancer cells. Also noted: method as in PMID 1800632. Particulars: MB-9812 ref 60; cited from earlier work.
For the next data set, the system named is U87MG.ΔEGFR cells. The data set can be described thus: Resazurin reduction assay (RRA), cytotoxicity. Type of data set: cell-based, human. Particulars: for IC50: Homo sapiens, U87MG.ΔEGFR, 72 h.
For data set [8], the system named is CCRF-CEM cells. The experiment in a line: Reactive oxygen species (ROS), H2DCFH-DA staining, flow cytometry. It is filed as cell-based, human. As for the experimental part:
as §1

Data set [9] relates to CCRF-CEM cells. The data set can be described thus: Apoptosis by annexin V/PI staining and flow cytometry. It is filed as cell-based, human. Particulars: 2 x IC50, 24 h. From the text: Afterward, apoptosis detection was undertaken with a fluorescein isothiocynate (FITC)-conjugated annexin V/PI assay kit (eBioscience™ Annexin V; Invitogen, San Diego, USA). The measurement was done using BD Accury C6 Flow Cytometer (BD Biosciences) under experimental conditions previously reported. The assays were done thrice independently with three repetitions each.

The test system of another data set is MDA-MB-231-BCRP cells. The data set can be described thus: Resazurin reduction assay (RRA), cytotoxicity. Particulars: for IC50: Homo sapiens, MDA-MB-231/BCRP, 72 h.
Another data set relates to U87MG cells. The experiment in a line: Resazurin reduction assay (RRA), cytotoxicity. It is filed as cell-based. Particulars: Homo sapiens, U-87 MG, 72 h.
For the next data set, the system named is CEM/ADR5000 cells. The data set can be described thus: Resazurin reduction assay (RRA), cytotoxicity. It is filed as cell-based, human. The settings on record: for IC50: Homo sapiens, CEM/ADR5000, 72 h; for Degree of resistance (D.R.): ratio of IC50 CEM/ADR5000 vs CCRF-CEM.
Data set [10] concerns caspase 8 in CCRF-CEM cells. The data set can be described thus: Caspase-Glo assay. It is filed as cell-based, human. Particulars: 2 × IC50, 6 h. As for the experimental part:
(§2) The activity of caspases in CCRF-CEM cells treated with BAL and the flavonolignan 2 was determined by Caspase-Glo assay. […] The whole was then incubated for 6 h (standard culture conditions) and the activity of caspases was detected by spectrophotometry as previously described.

For data set [11], the system named is caspase 9 in CCRF-CEM cells. The data set can be described thus: Caspase-Glo assay. Particulars: 2 × IC50, 6 h. Type of data set: cell-based, human. As for the experimental part:
as §2

In data set [12] the test system is A-549 lung carcinoma cells, MCF-7 breast cancer cells, and PC-3 prostate cancer cells. The settings on record: three reported cancer cell lines ref Makong et al. [30]; cited from earlier work.
The test system of a further data set is PC-3. Also on record: method as in PMID 31816856. The settings on record: on PC-3 ref 30; cited from earlier work.

Protocol for AML12 hepatocytes: (§3) The RPMI-1640 medium was used for the culture of CCRF-CEM and CEM/ADR5000 cells whilst DMEM medium was used for carcinoma cells. The culture media were supplemented (complete medium) with 10% fetal bovine serum and 1% penicillin/streptomycin (Invitrogen, Eggenstein, Germany). […] To maintain the resistance phenotype of the resistant carcinoma cell lines such as MDA-MB-231/BCRP and HCT116 p53^−/−, and U87MG.ΔEGFR cells, the complete DMEM medium containing geneticin at 800 ng/ml and 400 µg/ml, respectively were used [41, 42].
(§4) Cells were cultured in a standard condition consisted of a humidified 5% CO2 atmosphere and an incubation temperature of 37 °C. The tested concentration ranges were 0.63—80 µg/mL for the botanicals and 0.78—100 µM for phytochemicals. The incubation time of the treated cells was 72 h, and the fluorescence was measured with Infinite M2000 Pro™ plate reader (Tecan, Crailsheim, Germany). The wavelengths used were 544 nm for the excitation and 590 nm for the emission. […] The degree of resistance (D.R.) was set as the ratio of the IC50 values of samples in the resistant cell line vs that of corresponding sensitive cell line. The selectivity index (S.I.) was the ratio of the IC50 value of AML12 hepatocytes vs. that of HepG2 cells [13, 48].
Description for CCRF-CEM leukemia cells: (§5) In this work, 9 cancer cell lines with various drug resistance patterns as well as AML12 hepatocytes as normal control cell line were used. […] The AML12 hepatocytes were used for the comparison of the activities of the samples with HepG2 [40]. […] The RPMI-1640 medium was used for the culture of CCRF-CEM and CEM/ADR5000 cells whilst DMEM medium was used for carcinoma cells. The culture media were supplemented (complete medium) with 10% fetal bovine serum and 1% penicillin/streptomycin (Invitrogen, Eggenstein, Germany). […] To maintain the resistance phenotype of the resistant carcinoma cell lines such as MDA-MB-231/BCRP and HCT116 p53^−/−, and U87MG.ΔEGFR cells, the complete DMEM medium containing geneticin at 800 ng/ml and 400 µg/ml, respectively were used [41, 42].
as §4
Protocol for CEM/ADR5000 cells: as §3, §4
Description for HCT116 p53+/+ cells: as §5, §4
Protocol for HCT116 p53−/− cells: as §3, §4
Description for HepG2 cells: as §5, §4
Protocol for MDA-MB-231-BCRP cells: as §3, §4
Description for MDA-MB-231-pcDNA cells: as §5, §4
Description for U87MG cells: as §5, §4
Protocol for U87MG.ΔEGFR cells: as §3, §4
Description for nine cancer cell lines: as §5
Cells were cultured in a standard condition consisted of a humidified 5% CO2 atmosphere and an incubation temperature of 37 °C. The tested concentration ranges were 0.63—80 µg/mL for the botanicals and 0.78—100 µM for phytochemicals. The incubation time of the treated cells was 72 h, and the fluorescence was measured with Infinite M2000 Pro™ plate reader (Tecan, Crailsheim, Germany). The wavelengths used were 544 nm for the excitation and 590 nm for the emission. […] The degree of resistance (D.R.) was set as the ratio of the IC50 values of samples in the resistant cell line vs that of corresponding sensitive cell line. […]

For `COc1cc([C@H]2Oc3cc(-c4cc(=O)c5c(O)cc(O)cc5o4)ccc3O[C@@H]2CO)ccc1O` [Compound 2, hydnocarpin], the melting point (in general, the temperature, or range, at which the solid turns liquid) was 261 to 263 °C. Moreover, the “cancer cell lines with IC50 ≤ 10 μM” value with nine cancer cell lines was 8/9. Besides, the IC50 – broadly, the concentration needed to halve the response being measured – in the data set on HCT116 p53+/+ cells was determined as 11.4 ± 0.98 µM. In addition, the IC50 in the data set on L-1210 leukemia cells was 3.65 µg/mL (≈ 7.86 µM). For the same compound, in the data set on CCRF-CEM cells [1] (1/4 × IC50, 24 h), the “cells in sub-G0/G1 phase” value is listed as 3.41 ± 0.2%. Besides, the “cells in sub-G0/G1 phase” value in the data set on CCRF-CEM cells [1] (2 × IC50, 24 h) is given as 38.40 ± 2.6%. Besides, the concentration for half-maximal inhibition (IC50) in the data set on HCT116 p53−/− cells came out at 6.74 ± 0.33 µM. Moreover, the “Degree of resistance (D.R.)” value with HCT116 p53−/− cells (ratio of IC50 HCT116 p53−/− vs HCT116 p53+/+) was 0.59. In the data set on CCRF-CEM leukemia cells, this compound had a concentration for half-maximal inhibition (IC50) of 4.28 ± 0.31 µM. For the same compound, the IC50 in the data set on HepG2 cells is 2.73 ± 0.19 µM. Moreover, the IC50 in data set [2] was 8.7 µM. Besides, in data set [3], the 50% inhibitory concentration (IC50) was 1.15 µg/mL (≈ 2.48 µM). For the same compound, in the data set with CCRF-CEM cells [4], the “Q1: cells with undamaged (intact) MMP” value worked out at 10.4%; the “Q2: cells with MMP loss” value is given as 70.5%; the “cells with disrupted MMP (Q3 and Q4)” value is 19.1%. Also, in the data set on Tmolt3 leukemia cells, the IC50 was 32.94 µg/mL (≈ 70.9 µM). This compound gave an IC50 in the data set on MDA-MB-231-pcDNA cells of 4.07 ± 0.37 µM. Besides, in the data set with SW480 colon cancer cells, the IC50 is 20.3 µM. Also, in the data set on HeLa-S3 uterine cells, the 50% inhibitory concentration (IC50) is 2.02 µg/mL (≈ 4.35 µM). Moreover, 51.2 ± 3.2 µM corresponded to half-maximal inhibition with AML12 hepatocytes (IC50). For the same compound, the IC50 in [5] is 2.14 µg/mL (≈ 4.61 µM). For the same compound, the half-maximal inhibitory concentration (IC50) in data set [6] was 2.00 µg/mL (≈ 4.31 µM). The half-maximal inhibitory concentration (IC50) in data set [7] was 8.18 µg/mL (≈ 17.6 µM). In the data set on U87MG.ΔEGFR cells, this compound registered an IC50 of 5.42 ± 0.44 µM. Moreover, the “Degree of resistance (D.R.)” value with U87MG.ΔEGFR cells (ratio of IC50 U87.MGΔEGFR vs U87.MG) is 0.58. Also, the “ROS levels in treated cells” value with CCRF-CEM cells [8] (1/4 × IC50, 24 h) turned out to be 6.00%. For the same compound, in the data set with CCRF-CEM cells [8] (2 × IC50, 24 h), the “ROS levels in treated cells” value worked out at 49.00%. Besides, in the data set with CCRF-CEM cells [9], the “Q2-LR: early apoptotic cells annexin (+)/PI (-)” value came to 9.4 ± 0.8% and the “Q2-UR: annexin V (+)/PI (+) late apoptotic or necrotic cells” value was found to be 18.5 ± 1.3%. Moreover, the IC50 in the data set with MDA-MB-231-BCRP cells turned out to be 6.65 ± 0.24 µM. In addition, the “Degree of resistance (D.R.)” value in the data set with MDA-MB-231-BCRP cells (ratio of IC50 MDA-MB-231-BCRP vs MDA-MB-231-pcDNA) worked out at 1.63. For the same compound, the concentration for half-maximal inhibition (IC50) with U87MG cells was 9.29 ± 0.73 µM. For the same compound, in the data set on CEM/ADR5000 cells, the IC50 was found to be 3.07 ± 0.18 µM and the “Degree of resistance (D.R.)” value is given as 0.72. Further, the “increase of activity of caspase 8” value in data set [10] worked out at 2.12 fold. The “increase of activity of caspase 9” value in data set [11] is reported as 2.67 fold.
The compound `COc1cc([C@H]2Oc3c(OC)cc4ccc(=O)oc4c3O[C@@H]2CO)cc(OC)c1O` [Compound 6, cleomiscosin C] gave a melting point of 254 to 256 °C. The 50% inhibitory concentration (IC50) with HCT116 p53+/+ cells is over 100 µM. Further, the IC50 with HCT116 p53−/− cells was over 100 µM. The same compound returned a half-maximal inhibitory concentration (IC50) with CCRF-CEM leukemia cells of 23.2 ± 1.63 µM. Besides, the IC50 in the data set with HepG2 cells amounted to 15.5 ± 1.06 µM. In addition, the IC50 in the data set on MDA-MB-231-pcDNA cells is over 100 µM. The 50% inhibitory concentration (IC50) with AML12 hepatocytes is over 100 µM. Also, the “Selectivity index (S.I.)” value with AML12 hepatocytes (ratio of IC50 in AML12 vs IC50 in HepG2 cells) was over 6.46. In the data set with U87MG.ΔEGFR cells, this compound displayed a half-inhibitory concentration (IC50) of over 100 µM. Besides, in [12], the “cytotoxic activity” value is listed as “not active”. In addition, in the data set with MDA-MB-231-BCRP cells, the IC50 is over 100 µM. This compound also registered a 50% inhibitory concentration (IC50) with U87MG cells of over 100 µM. In the data set with CEM/ADR5000 cells, the concentration for half-maximal inhibition (IC50) was over 100 µM and the “Degree of resistance (D.R.)” value is over 4.31.
For bruceacanthinones A, the IC50 with PC-3 is 196 µM.

Source of the values: publication PMC9930359, “Cytotoxicity of the methanol extracts and compounds of Brucea antidysenterica (Simaroubaceae) towards multifactorial drug-resistant human cancer cell lines” (BMC Complementary Medicine and Therapies, 2023).
